Results on 1 compound are retold here after PMC4579270, “Identification and Characterization of an Irreversible Inhibitor of CDK2” (Chemistry & Biology, 2015).

Experiment in all cases: Dundee protein kinase screen
Assay type in all cases: biochemical

One assay deals with MARK1 (Homo sapiens, UniProt Q9P0L2). As to conditions: MARK1, 1µM; read-out: %Remaining activity at 1µM NU6300. The protocol:
(§1) Prior to determining its cellular activity, we carried out a screen to assess its selectivity against a panel of 131 protein kinases under conditions that would not distinguish between a reversible or irreversible mode of action. […] These 13 kinases and 29 additional kinases, selected for their known sensitivity to other inhibitors within the purine series, were then tested in a modified screening format in which the assay was repeated following a 4-hr pre-incubation (Table S3B). […] However, conformational flexibility around the active site may promote such an interaction with a residue from another part of the structure ([Martin et al., 2012]).
(§2) Table S3, Related to Figure 4. NCL-0006300 protein kinase selectivity. (A) NU6300 was tested at a single concentration of 1µM against 131 protein kinases present in a Dundee protein kinase screen (Bain et al., 2007). Values given are % activity remaining and are the average of duplicate measurements: 0-25% (red), 26-50% (yellow), 51-80% (black) and above 81% (green). The kinase domain sequences (as defined by UniProt) of […]
(§3) have a lysine residue at a position close to CDK2 Lys88 or Lys89. However, in the structure of tyrosine-protein kinase BTK (PDB ID: 3GEN) the residue equivalent to CDK2 Asp86 is Cys481 and therefore there is the potential for a covalent adduct to be formed through this side chain. […]

The next assay has as its target DYRK2 (Homo sapiens, UniProt Q92630). As to conditions: DYRK2, 1µM; read-out: %Remaining activity at 1µM NU6300. Here is the method: as §1, §2, §3
For the next assay, the target named is ABL (Homo sapiens, UniProt P00519). As to conditions: read-out: %Remaining activity at 1µM NU6300. The protocol: as §1, §2, §3
Another assay concerns the target MARK2 (Homo sapiens, UniProt Q7KZI7). As to conditions: MARK2, 1µM; read-out: %Remaining activity at 1µM NU6300. Here is the method: as §1, §2, §3
The target of the next assay is CK1δ (Homo sapiens, UniProt P48730). As to conditions: read-out: %Remaining activity at 1µM NU6300. The protocol: as §1, §2, §3
A further assay addresses BTK (Homo sapiens, UniProt Q06187). As to conditions: read-out: %Remaining activity at 1µM NU6300. The protocol:
as §1, §2, §3

A further assay has as its target BRSK2 (Homo sapiens, UniProt Q8IWQ3). As to conditions: BRSK2, 1µM; read-out: %Remaining activity at 1µM NU6300. The protocol: as §1, §2, §3
In the next assay the target is JNK2 (Homo sapiens, UniProt P45984). As to conditions: JNK2, 1µM; read-out: %Remaining activity at 1µM NU6300. The protocol: as §1, §2, §3
In the next assay the target is CK1γ2 (Homo sapiens, UniProt P78368). As to conditions: CK1γ2, 1µM; read-out: %Remaining activity at 1µM NU6300. The protocol:
as §1, §2, §3

For another assay, the target named is BRK (Homo sapiens, UniProt Q13882). As to conditions: read-out: %Remaining activity at 1µM NU6300. The protocol:
as §1, §2, §3

For the next assay, the target named is EPH-B4 (Homo sapiens, UniProt P54760). As to conditions: EPH-B4, 1µM; read-out: %Remaining activity at 1µM NU6300. Here is the method:
as §1, §2, §3

A further assay deals with IRR (Homo sapiens, UniProt P14616). As to conditions: read-out: %Remaining activity at 1µM NU6300. The protocol: as §1, §2, §3
In a further assay the target is MAPKAP-K2 (Homo sapiens, UniProt P49137). As to conditions: MAPKAP-K2, 1µM; read-out: %Remaining activity at 1µM NU6300. The protocol: as §1, §2, §3
The next assay deals with EPH-A4 (Homo sapiens, UniProt P54764). As to conditions: EPH-A4, 1µM; read-out: %Remaining activity at 1µM NU6300. The protocol: as §1, §2, §3
The target of a further assay is T1, Aurora A (Homo sapiens, UniProt O14965).
T1 sequence (O14965 1-403): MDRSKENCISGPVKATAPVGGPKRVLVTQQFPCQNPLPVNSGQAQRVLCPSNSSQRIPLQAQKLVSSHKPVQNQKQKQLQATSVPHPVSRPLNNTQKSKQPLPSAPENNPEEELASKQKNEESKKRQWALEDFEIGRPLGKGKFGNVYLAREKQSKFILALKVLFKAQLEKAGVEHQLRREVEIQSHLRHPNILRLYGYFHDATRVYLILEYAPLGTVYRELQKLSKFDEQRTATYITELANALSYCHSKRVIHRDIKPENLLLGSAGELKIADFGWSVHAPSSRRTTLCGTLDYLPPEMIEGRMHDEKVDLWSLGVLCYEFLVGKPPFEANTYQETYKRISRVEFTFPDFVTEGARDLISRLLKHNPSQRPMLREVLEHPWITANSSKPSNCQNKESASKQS
As to conditions: read-out: %Remaining activity at 1µM NU6300. Here is the method: as §1, §2, §3

The next assay has as its target T2, MARK4 (Homo sapiens, UniProt Q96L34).
T2 sequence (Q96L34 1-752): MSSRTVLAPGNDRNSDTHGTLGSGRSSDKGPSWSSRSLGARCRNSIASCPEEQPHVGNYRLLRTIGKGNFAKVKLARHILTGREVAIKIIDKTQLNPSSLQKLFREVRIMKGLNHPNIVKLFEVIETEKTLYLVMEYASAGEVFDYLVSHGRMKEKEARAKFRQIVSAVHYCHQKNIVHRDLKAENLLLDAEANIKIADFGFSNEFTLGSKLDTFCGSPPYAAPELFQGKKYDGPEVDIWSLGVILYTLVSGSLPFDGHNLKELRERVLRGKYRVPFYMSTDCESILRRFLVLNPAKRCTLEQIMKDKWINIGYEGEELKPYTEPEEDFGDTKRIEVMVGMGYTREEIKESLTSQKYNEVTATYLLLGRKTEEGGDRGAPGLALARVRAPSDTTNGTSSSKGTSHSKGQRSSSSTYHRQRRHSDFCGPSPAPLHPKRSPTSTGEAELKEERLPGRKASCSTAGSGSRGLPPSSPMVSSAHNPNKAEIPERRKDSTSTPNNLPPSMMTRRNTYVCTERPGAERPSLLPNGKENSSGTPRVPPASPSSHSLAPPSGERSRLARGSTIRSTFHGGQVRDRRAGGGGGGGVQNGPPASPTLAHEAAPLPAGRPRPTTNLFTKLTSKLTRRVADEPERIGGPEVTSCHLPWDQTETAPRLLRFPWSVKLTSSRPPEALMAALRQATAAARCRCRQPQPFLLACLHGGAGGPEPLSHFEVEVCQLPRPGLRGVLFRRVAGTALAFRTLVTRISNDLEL
As to conditions: MARK4, 1µM; read-out: %Remaining activity at 1µM NU6300. Here is the method: as §1, §2, §3

Sequence of DYRK2 (Q92630 whole entry): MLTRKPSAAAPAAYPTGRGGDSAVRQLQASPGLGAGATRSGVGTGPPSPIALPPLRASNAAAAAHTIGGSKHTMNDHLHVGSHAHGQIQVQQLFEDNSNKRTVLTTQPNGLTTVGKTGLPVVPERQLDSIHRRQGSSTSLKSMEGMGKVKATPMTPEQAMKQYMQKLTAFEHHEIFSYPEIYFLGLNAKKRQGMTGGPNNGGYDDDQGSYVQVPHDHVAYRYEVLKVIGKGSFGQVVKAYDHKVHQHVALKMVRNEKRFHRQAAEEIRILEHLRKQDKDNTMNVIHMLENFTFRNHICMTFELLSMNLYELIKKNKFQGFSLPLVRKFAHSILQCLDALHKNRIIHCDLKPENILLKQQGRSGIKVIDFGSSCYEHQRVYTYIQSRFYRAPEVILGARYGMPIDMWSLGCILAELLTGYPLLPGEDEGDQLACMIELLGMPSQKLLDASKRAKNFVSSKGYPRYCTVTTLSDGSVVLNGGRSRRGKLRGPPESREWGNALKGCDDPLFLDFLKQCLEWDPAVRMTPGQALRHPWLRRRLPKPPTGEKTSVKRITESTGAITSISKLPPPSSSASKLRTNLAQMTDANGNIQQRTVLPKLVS
Sequence of CK1γ2 (P78368 whole entry): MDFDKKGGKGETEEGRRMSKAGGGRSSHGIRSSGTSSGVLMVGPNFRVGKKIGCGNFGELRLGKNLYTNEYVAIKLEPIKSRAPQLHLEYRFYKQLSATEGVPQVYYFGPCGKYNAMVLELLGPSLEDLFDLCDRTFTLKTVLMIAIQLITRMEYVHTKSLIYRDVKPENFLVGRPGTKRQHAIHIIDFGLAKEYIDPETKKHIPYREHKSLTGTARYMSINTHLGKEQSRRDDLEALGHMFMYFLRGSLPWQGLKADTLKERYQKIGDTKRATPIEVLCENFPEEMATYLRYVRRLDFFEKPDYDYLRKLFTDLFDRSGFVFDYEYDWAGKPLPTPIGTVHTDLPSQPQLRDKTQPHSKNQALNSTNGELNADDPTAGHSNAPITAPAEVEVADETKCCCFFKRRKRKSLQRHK
Sequence of CK1δ (P48730 whole entry): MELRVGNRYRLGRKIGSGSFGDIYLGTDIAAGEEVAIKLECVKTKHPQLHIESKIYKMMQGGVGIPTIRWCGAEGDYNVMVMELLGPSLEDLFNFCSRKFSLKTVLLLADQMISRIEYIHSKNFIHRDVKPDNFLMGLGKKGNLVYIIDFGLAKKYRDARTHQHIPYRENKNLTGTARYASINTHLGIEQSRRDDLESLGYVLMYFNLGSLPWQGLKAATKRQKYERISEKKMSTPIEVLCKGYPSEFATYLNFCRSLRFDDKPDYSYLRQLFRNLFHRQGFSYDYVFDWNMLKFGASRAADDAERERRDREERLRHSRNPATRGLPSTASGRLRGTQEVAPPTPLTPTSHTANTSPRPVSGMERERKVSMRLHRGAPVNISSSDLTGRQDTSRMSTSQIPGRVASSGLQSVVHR
Sequence of MARK1 (Q9P0L2 whole entry): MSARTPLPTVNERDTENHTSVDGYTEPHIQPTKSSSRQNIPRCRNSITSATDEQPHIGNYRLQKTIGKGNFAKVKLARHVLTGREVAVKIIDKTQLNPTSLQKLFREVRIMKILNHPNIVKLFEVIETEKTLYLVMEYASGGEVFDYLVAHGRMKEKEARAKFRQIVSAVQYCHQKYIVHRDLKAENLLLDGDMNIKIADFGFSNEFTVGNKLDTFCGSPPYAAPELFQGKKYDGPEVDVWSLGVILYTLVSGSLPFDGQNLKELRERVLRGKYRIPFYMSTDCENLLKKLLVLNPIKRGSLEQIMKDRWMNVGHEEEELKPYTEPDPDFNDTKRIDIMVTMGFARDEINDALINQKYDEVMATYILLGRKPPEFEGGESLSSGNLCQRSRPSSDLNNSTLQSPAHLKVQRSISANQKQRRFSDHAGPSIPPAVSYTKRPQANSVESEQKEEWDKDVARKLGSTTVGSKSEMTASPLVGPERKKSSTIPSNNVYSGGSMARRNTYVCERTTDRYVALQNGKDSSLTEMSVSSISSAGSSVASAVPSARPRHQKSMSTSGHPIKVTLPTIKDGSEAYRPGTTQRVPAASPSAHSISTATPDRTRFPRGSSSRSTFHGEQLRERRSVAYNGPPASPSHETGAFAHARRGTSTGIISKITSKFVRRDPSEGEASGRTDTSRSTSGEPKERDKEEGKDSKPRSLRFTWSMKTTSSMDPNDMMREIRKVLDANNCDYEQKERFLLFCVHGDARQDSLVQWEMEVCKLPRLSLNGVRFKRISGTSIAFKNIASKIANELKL
Sequence of ABL (P00519 whole entry): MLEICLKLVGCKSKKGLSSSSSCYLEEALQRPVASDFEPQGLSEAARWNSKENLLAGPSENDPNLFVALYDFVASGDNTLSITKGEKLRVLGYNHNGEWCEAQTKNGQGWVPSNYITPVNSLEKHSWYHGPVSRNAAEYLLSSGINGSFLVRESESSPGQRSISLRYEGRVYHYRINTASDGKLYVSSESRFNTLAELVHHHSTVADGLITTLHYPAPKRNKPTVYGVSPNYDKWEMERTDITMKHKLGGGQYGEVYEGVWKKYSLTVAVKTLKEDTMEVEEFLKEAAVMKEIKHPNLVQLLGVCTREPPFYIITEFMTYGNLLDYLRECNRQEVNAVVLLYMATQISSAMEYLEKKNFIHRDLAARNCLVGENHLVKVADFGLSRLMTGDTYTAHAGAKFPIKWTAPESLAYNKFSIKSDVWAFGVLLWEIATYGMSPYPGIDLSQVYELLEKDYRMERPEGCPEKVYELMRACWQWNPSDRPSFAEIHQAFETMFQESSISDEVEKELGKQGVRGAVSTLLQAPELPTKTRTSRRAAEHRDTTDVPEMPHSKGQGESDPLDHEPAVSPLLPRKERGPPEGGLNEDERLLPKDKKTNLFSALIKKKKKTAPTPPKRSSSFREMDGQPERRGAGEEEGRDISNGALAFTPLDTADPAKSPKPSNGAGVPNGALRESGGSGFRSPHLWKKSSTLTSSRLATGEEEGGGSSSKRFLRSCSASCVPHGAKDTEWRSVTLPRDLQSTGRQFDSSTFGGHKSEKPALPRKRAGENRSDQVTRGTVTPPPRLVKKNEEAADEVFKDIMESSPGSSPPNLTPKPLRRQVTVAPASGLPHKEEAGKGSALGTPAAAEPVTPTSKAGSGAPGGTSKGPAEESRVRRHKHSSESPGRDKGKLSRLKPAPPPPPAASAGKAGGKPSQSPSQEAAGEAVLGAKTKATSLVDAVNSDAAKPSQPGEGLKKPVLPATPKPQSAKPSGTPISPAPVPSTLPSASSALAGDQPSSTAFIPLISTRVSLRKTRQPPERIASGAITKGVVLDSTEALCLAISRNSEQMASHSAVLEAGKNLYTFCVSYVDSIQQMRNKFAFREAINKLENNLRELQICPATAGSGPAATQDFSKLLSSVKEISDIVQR
Sequence of JNK2 (P45984 whole entry): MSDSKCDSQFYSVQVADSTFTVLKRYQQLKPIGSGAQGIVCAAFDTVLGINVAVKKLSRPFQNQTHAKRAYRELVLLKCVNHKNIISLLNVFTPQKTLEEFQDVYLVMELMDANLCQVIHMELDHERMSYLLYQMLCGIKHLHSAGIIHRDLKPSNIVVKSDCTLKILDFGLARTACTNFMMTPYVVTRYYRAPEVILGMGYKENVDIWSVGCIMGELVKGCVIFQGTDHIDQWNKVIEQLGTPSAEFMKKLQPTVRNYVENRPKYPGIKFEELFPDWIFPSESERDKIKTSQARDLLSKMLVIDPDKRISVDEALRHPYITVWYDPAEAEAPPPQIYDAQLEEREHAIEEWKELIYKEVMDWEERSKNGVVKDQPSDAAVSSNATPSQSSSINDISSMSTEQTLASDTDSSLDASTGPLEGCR
Sequence of EPH-A4 (P54764 20-986): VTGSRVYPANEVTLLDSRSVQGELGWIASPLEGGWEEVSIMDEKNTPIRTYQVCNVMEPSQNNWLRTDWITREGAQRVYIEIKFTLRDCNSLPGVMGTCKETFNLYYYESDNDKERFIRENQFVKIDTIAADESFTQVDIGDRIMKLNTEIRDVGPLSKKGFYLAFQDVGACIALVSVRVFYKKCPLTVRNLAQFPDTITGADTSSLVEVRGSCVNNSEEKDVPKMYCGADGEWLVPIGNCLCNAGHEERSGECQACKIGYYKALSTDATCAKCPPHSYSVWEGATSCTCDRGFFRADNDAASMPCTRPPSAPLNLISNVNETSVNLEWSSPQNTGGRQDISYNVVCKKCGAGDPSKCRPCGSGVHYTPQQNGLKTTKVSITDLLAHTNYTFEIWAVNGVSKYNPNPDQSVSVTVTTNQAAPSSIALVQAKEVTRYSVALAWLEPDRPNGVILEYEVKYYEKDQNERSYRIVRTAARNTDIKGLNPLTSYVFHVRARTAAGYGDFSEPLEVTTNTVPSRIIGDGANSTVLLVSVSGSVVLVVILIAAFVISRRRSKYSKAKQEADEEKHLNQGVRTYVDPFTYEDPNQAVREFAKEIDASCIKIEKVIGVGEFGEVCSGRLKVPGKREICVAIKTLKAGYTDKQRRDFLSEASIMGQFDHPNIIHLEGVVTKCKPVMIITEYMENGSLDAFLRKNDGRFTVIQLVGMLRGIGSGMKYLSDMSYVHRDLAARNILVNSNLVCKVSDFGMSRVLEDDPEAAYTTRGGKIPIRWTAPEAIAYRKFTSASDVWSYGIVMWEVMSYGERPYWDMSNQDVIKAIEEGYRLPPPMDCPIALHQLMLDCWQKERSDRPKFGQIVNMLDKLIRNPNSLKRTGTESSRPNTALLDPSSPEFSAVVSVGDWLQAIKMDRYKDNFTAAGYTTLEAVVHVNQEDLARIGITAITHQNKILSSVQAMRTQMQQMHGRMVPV

With `C=CS(=O)(=O)c1ccc(Nc2nc(OCC3CCCCC3)c3nc[nH]c3n2)cc1` [NU6300, 6-(cyclohexylmethoxy)-N-(4-(vinylsulfonyl)phenyl)-9H-purin-2-amine], the remaining activity at 1 µM at MARK1 was determined as 47%; at DYRK2, 78%; at ABL, 56%; on MARK2, 69%; on CK1δ, 83%; on BTK, 17%. Also, the remaining activity at 1 µM at BRSK2 worked out at 60%; at JNK2 it was 88%; on CK1γ2, 79%; on BRK it was 59%; on EPH-B4, 90%; on IRR, 32%. Further, the remaining activity at 1 µM on MAPKAP-K2 was determined as 93%; at EPH-A4, 69%; on Aurora A, 18%; at MARK4, 37%.
